Experimental data published in patent US20260217712A1, “SOLID STATE FORMS OF MNK INHIBITORS” (4E Therapeutics, Inc., priority 2023, published 2026).
Values after ≈ are worked out from the molar mass of the structure shown. “Also recorded” adds a separate entry of the source.

What was measured:
Format in all cases: physicochemical
[1] = Competitive slurries of Pattern 3 and Pattern 11, XRPD
Procedure, shortened: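 Turbula-mixed 1:1 Pattern 3/Pattern 11 solid (30 mg) slurried in dried solvent (20 vol) at fridge temperature, RT or 55 °C; XRPD after 7 days, mixtures re-checked after a further 10 days. Repeats at 5 °C and 55 °C used filtered THF/water (9:1) saturated with Structure (I); XRPD after 1 and 11 days.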

[2] = Static storage at 40° C./75% RH, XRPD and HPLC post storage; conditions: 7 days
LogD = assay: LogD
[3] = Thermodynamic solubility in simulated media and buffers; conditions: 25° C./24 h
Protocol: The thermodynamic solubility for Pattern 11 was determined in 3 simulated media and two buffers. […]

XRPD under vacuum = conditions: for XRPD under vacuum: after 30 min under vacuum
Source text: XRPD diffractograms were collected on a PANalytical Empyrean diffractometer using Cu Kα radiation (45 kV, 40 mA, λ=1.544398 Å) in reflection geometry. The instrument was fitted with an Anton Paar CHC plus+ stage fitted with graphite/Kapton windows and equipped with air cooling coupled or a low vacuum pump system using an Edwards RV3 pump. A programmable divergence slit (in automatic mode), with a 10 mm fixed incident beam mask, Ni filter and 0.04 rad Soller slits were used on the incident beam. A PIXcel3D detector, placed on the diffracted beam, was fitted with a programmable anti-scatter slit (in automatic mode) and 0.04 rad Soller slits.
For XRPD under vacuum the samples were prepared and analyzed in an Anton Paar chromed sample holder. The sample temperature was kept constant throughout at 25° C. The measurement parameters are as per the standard screening data collection method (detailed above). An initial measurement was taken before the vacuum was initiated and then subsequently at 10 min intervals. Data collection was stopped after three consecutive scans showing no change.

[4] = Heating for 24 h in a vacuum tray dryer, XRPD and HPLC; conditions: 75° C., reduced pressure
Protocol: A polymorphism study of Structure (I) was performed at 75° C., 100° C., 175° C., and 250° C. About 500 mg of Structure (I) Pattern 3 was heated at 75° C. for 24 h in a vacuum tray dryer (VTD) under reduced pressure. Obtained material after heating at 75° C. was analyzed for purity by HPLC and XPRD analysis. […] Additionally, about 500 mg of Structure (I) was heated at 75° C. for 24 h in a VTD under reduced pressure. After 24 h, material was cooled to 25-30° C. under inert atmosphere and analyzed for purity by HPLC and XRPD.
About 500 mg of Structure (I) was heated at 100° C. for 24 h in a VTD under reduced pressure. Obtained material after heating at 100° C. was analyzed for purity by HPLC and XPRD. […] Additionally, about 500 mg of Structure (I) was heated at 100° C. for 24 h in a VTD under reduced pressure. After 24 h material was cooled to 25-30° C. under inert atmosphere. Obtained material was analyzed for purity by HPLC and XPRD.
Obtained material after heating at 175° C. was analyzed for purity by HPLC and XPRD. […] After 24 h, material was cooled to 25-30° C. under inert atmosphere. Obtained material was analyzed for purity by HPLC and XPRD.
About 500 mg of Structure (I) was heated at 250° C. for 24 h in a VTD. Obtained material after heating at 250° C. was analyzed for purity by HPLC and XPRD.

[5] = Single crystal X-ray diffraction
Protocol: Crystals of Structure (I) Pattern 3 were obtained by evaporation of a THF:water 9:1 solution. A crystal of Structure (I) Pattern 3 of sufficient size and quality for analysis by single crystal X-ray diffraction was isolated from the sample with approximate dimensions 0.15×0.05×0.02 mm.
The single crystal X-ray structure of Structure (I) Pattern 3 was determined at 293(2) K and a summary of the structural data can be found in Table 41. The crystal structure of Structure (I) Pattern 3 was solved in the triclinic space group P-1 with the final R1 [I>2σ(I)]=4.36%. The structure was identified as depicted in FIG. 89 and FIG. 90 and the asymmetric unit found to contain two molecules of Structure (I).

form conversion in competitive slurries (in words) [1]: converted to Pattern 11 | XRPD post storage at 40° C./75% RH ([2]; listed as Lot B Sample 1): Unchanged by XRPD | logD (LogD): 3.1 | Solubility FaSSGF ([3]; FaSSGF, listed as Structure (I) Pattern 3): 26 µg/mL (≈ 71 µM) | Solubility FaSSIF ([3]; FaSSIF, listed as Lot B Sample 2): FaSSIF-0.0016 mg/mL | Solubility FeSSIF ([3]; FeSSIF, listed as Lot B Sample 2): FeSSIF-0.0060 mg/mL | Solubility pH 2.0 ([3]; pH 2.0 buffer, listed as Lot B Sample 2): pH 2.0-0.012 mg/mL | Solubility pH 7.4 ([3]; pH 7.4 buffer): pH 7.4-0.001 mg/mL | XRPD under vacuum (XRPD under vacuum; listed as Lot B): converted to Pattern 10 | XRPD under vacuum (XRPD under vacuum; listed as Lot B Sample 1): Conversion to Pattern 10 after 30 min | XRPD after vacuum released (XRPD under vacuum; vacuum released for 30 min, ambient conditions, listed as Lot B Sample 1): Conversion back to Pattern 3 after | HPLC purity change after heating at 75° C. [4]: no change | XRPD form after heating at 75° C. [4]: remained as Pattern 3 | F(000) [5]: 796 | Density (calculated) ([5]; 293(2) K): 1.339 Mg/m^3 | Unit cell dimensions a ([5]; 293(2) K): a = 10.1823(3) Å Å | Unit cell dimensions b ([5]; 293(2) K): b = 12.1136(4) Å Å | Unit cell dimensions c ([5]; 293(2) K): c = 16.6675(3) Å Å | Unit cell dimensions α ([5]; 293(2) K): α = 72.512(2)° | Unit cell dimensions β ([5]; 293(2) K): β = 79.465(2)° | Unit cell dimensions γ ([5]; 293(2) K): γ = 72.661(3)° | Z ([5]; 293(2) K): 4 | Crystal system ([5]; 293(2) K, wavelength 1.54184 Å): Triclinic | Crystal habit ([5]; crystal from THF:Water 9:1, evaporative): Colorless lath | Volume ([5]; unit cell, 293(2) K): 1861.87(10) Å^3 | Absorption coefficient ([5]; wavelength 1.54184 Å): 0.756 mm^−1
SMILES: Cc1cc(Nc2cc(N)ncn2)c(=O)n2c1C(=O)NC21CCC2(CC2)CC1 [Pattern 3]
XRPD post storage at 40° C./75% RH ([2]; listed as 9-5): remained unchanged by XRPD; also recorded: Free Form Pattern 3
